Results: ChEMBL document CHEMBL1157511, “Dictazolines A and B, bisspiroimidazolidinones from the marine sponge Smenospongia cerebriformis” (J Nat Prod, 2008)
Activity calls are given as the source filed them. The rule behind the calls is not given here.

Assay: Inhibition of beta-secretase assessed as proteolytic cleavage of amyloid precursor protein

Row | Activity | SMILES
1 | inactive | CN1C(=N)N(C)[C@@]2(Cc3c([nH]c4ccccc34)[C@]3(C(=O)N(C)C(=N)N3C)[C@@H]2c2c[nH]c3cc(Br)ccc23)C1=O
2 | inactive | CN1C(=N)N(C)[C@@]2(Cc3c([nH]c4ccccc34)[C@]3(C(=O)N(C)C(=N)N3C)[C@@H]2c2c[nH]c3ccccc23)C1=O
